# Assay results from patent US20070292908A1, “Method for Detecting Streptococcus Agalactiae Using Alpha-Glucosidase Activity” (BIOMERIEUX, priority 2004, published 2007).
# Columns and labels:
# Streptococcus agalactiae [1] = assay: Number of strains detected as a function of the concentration of α-glucosidase substrate; type: cell-based; conditions: positive when I≧0.6, 8 strains
# Source text: The above protocol was repeated, with the exception that the concentration of enzymatic substrate was varied.
# Table 2 below gives the number of strains detected (considered to be positive when I≧0.6) as a function of the concentration of substrate.
# Streptococcus agalactiae [2] = assay: Detection of Streptococcus agalactiae strains on reaction media containing an α-glucosidase enzymatic substrate; type: cell-based; conditions: substrate 0.1 g/l; for intensity (I) of coloration: arbitrary scale 0 to 4
# Description: The reaction media were prepared by mixing heart-brain extract (4.84 g/l; Solabia), meat infusion (1.96 g/l; Solabia), biothione (1 g/l; Solabia), biotrypcase (7.2 g/l; Solabia), sodium carbonate (0.3 g/l; VWR), sodium pyruvate (2 g/l; Fluka), HEPES buffer (0.4 g/l; Sigma), lactalbumin peptone (2 g/l; DMV), glucose (1 g/l; Merck), American agar (2 g/l; Sobigel) and European agar (12 g/l; Roko).
# The media were then poured into a Petri dish for subsequent inoculation with bacterial strains.
# Eight Streptococcus agalactiae strains derived from the applicant's collection, suspended in physiological saline, were inoculated so as to give isolated colonies on each of the media. The dishes were then incubated at 37° C. for 48 hours. The colonies formed are examined visually after 18, 24 and more than 40 hours of incubation. The coloration of these colonies, the growth and also the intensity of this coloration were noted.
# The results are given in table 1 below and are expressed: • in terms of growth (G) with the size being indicated in mm, • in terms of intensity (1) of coloration based on an arbitrary scale ranging from 0 to 4, 0 corresponding to an absence of activity and 4 corresponding to the presence of a very intense coloration, • in terms of color (Co) with T=turquoise, R=pink or red, Gr=green, Mg=magenta, • according to the incubation time in hours (T).
# [3] = substrate 100 mg/l, incubation 24 h
# [4] = substrate 100 mg/l, incubation 48 h
# [5] = substrate 200 mg/l, incubation 24 h
# [6] = substrate 200 mg/l, incubation 48 h
# [7] = substrate 300 mg/l, incubation 24 h
# [8] = substrate 300 mg/l, incubation 48 h
# [9] = strain 0008200, 18 h incubation
# [10] = strain 0008200, 24 h incubation
# [11] = strain 0008200, >40 h incubation
# [12] = strain 0008206, 18 h incubation
# [13] = strain 0008206, 24 h incubation
# [14] = strain 0008206, >40 h incubation
# [15] = strain 0101060, 18 h incubation
# [16] = strain 0101060, 24 h incubation
# [17] = strain 0101060, >40 h incubation
# [18] = strain 7611003, 18 h incubation
# [19] = strain 7611003, 24 h incubation
# [20] = strain 7611003, >40 h incubation
# [21] = strain 7701031, 18 h incubation
# [22] = strain 7701031, 24 h incubation
# [23] = strain 7701031, >40 h incubation
# [24] = strain 7702055, 18 h incubation
# [25] = strain 7702055, 24 h incubation
# [26] = strain 7702055, >40 h incubation
# [27] = strain 8709013, 18 h incubation
# [28] = strain 8709013, 24 h incubation
# [29] = strain 8709013, >40 h incubation
# [30] = strain 8904053, 18 h incubation
# [31] = strain 8904053, 24 h incubation
# [32] = strain 8904053, >40 h incubation
substance,measurement,setting,value
5-bromo-6-chloro-3-indolyl-α-D-glucopyranoside [Magenta-alpha-Glu],number of strains detected,Streptococcus agalactiae [1]; [3],2/8
same,number of strains detected,Streptococcus agalactiae [1]; [4],8/8
same,number of strains detected,Streptococcus agalactiae [1]; [5],7/8
same,number of strains detected,Streptococcus agalactiae [1]; [6],8/8
same,number of strains detected,Streptococcus agalactiae [1]; [7],7/8
same,number of strains detected,Streptococcus agalactiae [1]; [8],8/8
same,intensity (I) of coloration,"Streptococcus agalactiae [2]; strain 0008200, 18 h",0.5
same,"growth (G), size",Streptococcus agalactiae [2]; [9],0.5 mm
same,intensity (I) of coloration,"Streptococcus agalactiae [2]; strain 0008200, 24 h",0.8
same,"growth (G), size",Streptococcus agalactiae [2]; [10],0.5 mm
same,intensity (I) of coloration,"Streptococcus agalactiae [2]; strain 0008200, >40 h",3
same,"growth (G), size",Streptococcus agalactiae [2]; [11],0.5 mm
same,intensity (I) of coloration,"Streptococcus agalactiae [2]; strain 0008206, 18 h",0.6
same,"growth (G), size",Streptococcus agalactiae [2]; [12],0.7 mm
same,intensity (I) of coloration,"Streptococcus agalactiae [2]; strain 0008206, 24 h",0.8
same,"growth (G), size",Streptococcus agalactiae [2]; [13],0.7 mm
same,intensity (I) of coloration,"Streptococcus agalactiae [2]; strain 0008206, >40 h",3
same,"growth (G), size",Streptococcus agalactiae [2]; [14],0.7 mm
same,intensity (I) of coloration,"Streptococcus agalactiae [2]; strain 0101060, 18 h",2.7
same,"growth (G), size",Streptococcus agalactiae [2]; [15],0.4 mm
same,intensity (I) of coloration,"Streptococcus agalactiae [2]; strain 0101060, 24 h",2.7
same,"growth (G), size",Streptococcus agalactiae [2]; [16],0.4 mm
same,intensity (I) of coloration,"Streptococcus agalactiae [2]; strain 0101060, >40 h",4
same,"growth (G), size",Streptococcus agalactiae [2]; [17],0.5 mm
same,intensity (I) of coloration,"Streptococcus agalactiae [2]; strain 7611003, 18 h",1
same,"growth (G), size",Streptococcus agalactiae [2]; [18],0.5 mm
same,intensity (I) of coloration,"Streptococcus agalactiae [2]; strain 7611003, 24 h",2
same,"growth (G), size",Streptococcus agalactiae [2]; [19],0.7 mm
same,intensity (I) of coloration,"Streptococcus agalactiae [2]; strain 7611003, >40 h",3
same,"growth (G), size",Streptococcus agalactiae [2]; [20],0.7 mm
same,"growth (G), size",Streptococcus agalactiae [2]; [21],0.5 mm
same,"growth (G), size",Streptococcus agalactiae [2]; [22],0.5 mm
same,intensity (I) of coloration,"Streptococcus agalactiae [2]; strain 7701031, >40 h",2
same,"growth (G), size",Streptococcus agalactiae [2]; [23],0.8 mm
same,intensity (I) of coloration,"Streptococcus agalactiae [2]; strain 7702055, 18 h",0.5
same,"growth (G), size",Streptococcus agalactiae [2]; [24],0.5 mm
same,intensity (I) of coloration,"Streptococcus agalactiae [2]; strain 7702055, 24 h",0.6
same,"growth (G), size",Streptococcus agalactiae [2]; [25],0.8 mm
same,intensity (I) of coloration,"Streptococcus agalactiae [2]; strain 7702055, >40 h",3
same,"growth (G), size",Streptococcus agalactiae [2]; [26],1 mm
same,intensity (I) of coloration,"Streptococcus agalactiae [2]; strain 8709013, 18 h",0.5
same,"growth (G), size",Streptococcus agalactiae [2]; [27],0.4 mm
same,intensity (I) of coloration,"Streptococcus agalactiae [2]; strain 8709013, 24 h",1.3
same,"growth (G), size",Streptococcus agalactiae [2]; [28],0.5 mm
same,intensity (I) of coloration,"Streptococcus agalactiae [2]; strain 8709013, >40 h",2.7
same,"growth (G), size",Streptococcus agalactiae [2]; [29],0.7 mm
same,intensity (I) of coloration,"Streptococcus agalactiae [2]; strain 8904053, 18 h",0.6
same,"growth (G), size",Streptococcus agalactiae [2]; [30],0.7 mm
same,intensity (I) of coloration,"Streptococcus agalactiae [2]; strain 8904053, 24 h",0.6
same,"growth (G), size",Streptococcus agalactiae [2]; [31],0.7 mm
same,intensity (I) of coloration,"Streptococcus agalactiae [2]; strain 8904053, >40 h",3
same,"growth (G), size",Streptococcus agalactiae [2]; [32],0.7 mm
5-bromo-4-chloro-3-indolyl-α-D-glucopyranoside [X-alpha-Glu],number of strains detected,Streptococcus agalactiae [1]; [3],3/8
same,number of strains detected,Streptococcus agalactiae [1]; [4],7/8
same,number of strains detected,Streptococcus agalactiae [1]; [5],7/8
same,number of strains detected,Streptococcus agalactiae [1]; [6],7/8
same,number of strains detected,Streptococcus agalactiae [1]; [7],7/8
same,number of strains detected,Streptococcus agalactiae [1]; [8],7/8
same,intensity (I) of coloration,"Streptococcus agalactiae [2]; strain 0008200, 18 h",0.3
same,"growth (G), size",Streptococcus agalactiae [2]; [9],0.7 mm
same,intensity (I) of coloration,"Streptococcus agalactiae [2]; strain 0008200, 24 h",0.6
same,"growth (G), size",Streptococcus agalactiae [2]; [10],0.7 mm
same,intensity (I) of coloration,"Streptococcus agalactiae [2]; strain 0008200, >40 h",2.3
same,"growth (G), size",Streptococcus agalactiae [2]; [11],0.8 mm
same,intensity (I) of coloration,"Streptococcus agalactiae [2]; strain 0008206, 18 h",0.3
same,"growth (G), size",Streptococcus agalactiae [2]; [12],0.7 mm
same,intensity (I) of coloration,"Streptococcus agalactiae [2]; strain 0008206, 24 h",1
same,"growth (G), size",Streptococcus agalactiae [2]; [13],0.7 mm
same,intensity (I) of coloration,"Streptococcus agalactiae [2]; strain 0008206, >40 h",2
same,"growth (G), size",Streptococcus agalactiae [2]; [14],0.8 mm
same,intensity (I) of coloration,"Streptococcus agalactiae [2]; strain 0101060, 18 h",2.7
same,"growth (G), size",Streptococcus agalactiae [2]; [15],0.4 mm
same,intensity (I) of coloration,"Streptococcus agalactiae [2]; strain 0101060, 24 h",3
same,"growth (G), size",Streptococcus agalactiae [2]; [16],0.5 mm
same,intensity (I) of coloration,"Streptococcus agalactiae [2]; strain 0101060, >40 h",4
same,"growth (G), size",Streptococcus agalactiae [2]; [17],0.7 mm
same,intensity (I) of coloration,"Streptococcus agalactiae [2]; strain 7611003, 18 h",2.3
same,"growth (G), size",Streptococcus agalactiae [2]; [18],1 mm
same,intensity (I) of coloration,"Streptococcus agalactiae [2]; strain 7611003, 24 h",2.7
same,"growth (G), size",Streptococcus agalactiae [2]; [19],1.2 mm
same,intensity (I) of coloration,"Streptococcus agalactiae [2]; strain 7611003, >40 h",3
same,"growth (G), size",Streptococcus agalactiae [2]; [20],1.5 mm
same,"growth (G), size",Streptococcus agalactiae [2]; [21],0.5 mm
same,"growth (G), size",Streptococcus agalactiae [2]; [22],0.7 mm
same,"growth (G), size",Streptococcus agalactiae [2]; [23],1.2 mm
same,intensity (I) of coloration,"Streptococcus agalactiae [2]; strain 7702055, 18 h",0.5
same,"growth (G), size",Streptococcus agalactiae [2]; [24],0.7 mm
same,intensity (I) of coloration,"Streptococcus agalactiae [2]; strain 7702055, 24 h",1
same,"growth (G), size",Streptococcus agalactiae [2]; [25],1 mm
same,intensity (I) of coloration,"Streptococcus agalactiae [2]; strain 7702055, >40 h",3
same,"growth (G), size",Streptococcus agalactiae [2]; [26],1.7 mm
same,intensity (I) of coloration,"Streptococcus agalactiae [2]; strain 8709013, 18 h",0.1
same,"growth (G), size",Streptococcus agalactiae [2]; [27],0.4 mm
same,intensity (I) of coloration,"Streptococcus agalactiae [2]; strain 8709013, 24 h",0.6
same,"growth (G), size",Streptococcus agalactiae [2]; [28],0.5 mm
same,intensity (I) of coloration,"Streptococcus agalactiae [2]; strain 8709013, >40 h",2
same,"growth (G), size",Streptococcus agalactiae [2]; [29],0.7 mm
same,intensity (I) of coloration,"Streptococcus agalactiae [2]; strain 8904053, 18 h",0.3
same,"growth (G), size",Streptococcus agalactiae [2]; [30],0.7 mm
same,intensity (I) of coloration,"Streptococcus agalactiae [2]; strain 8904053, 24 h",0.6
same,"growth (G), size",Streptococcus agalactiae [2]; [31],0.7 mm
same,intensity (I) of coloration,"Streptococcus agalactiae [2]; strain 8904053, >40 h",2.3
same,"growth (G), size",Streptococcus agalactiae [2]; [32],0.8 mm
